From ChEMBL document CHEMBL4145689, “Tailoring the Substitution Pattern on 1,3,5-Triazine for Targeting Cyclooxygenase-2: Discovery and Structure-Activity Relationship of Triazine-4-Aminophenylmorpholin-3-one Hybrids that Reverse Algesia and Inflammation in Swiss Albino Mice” (J Med Chem, 2018)
Activity calls are given as the source filed them. No cut-off for these calls is given here.

Legend:
[1] = target: T1, Prostaglandin G/H synthase 1 (Ovis aries, UniProt P05979); experiment: Inhibition of ovine COX1 pre-incubated for 10 mins before arachidonic acid addition and measured after 2 mins by EIA method
T1 sequence (P05979 whole entry): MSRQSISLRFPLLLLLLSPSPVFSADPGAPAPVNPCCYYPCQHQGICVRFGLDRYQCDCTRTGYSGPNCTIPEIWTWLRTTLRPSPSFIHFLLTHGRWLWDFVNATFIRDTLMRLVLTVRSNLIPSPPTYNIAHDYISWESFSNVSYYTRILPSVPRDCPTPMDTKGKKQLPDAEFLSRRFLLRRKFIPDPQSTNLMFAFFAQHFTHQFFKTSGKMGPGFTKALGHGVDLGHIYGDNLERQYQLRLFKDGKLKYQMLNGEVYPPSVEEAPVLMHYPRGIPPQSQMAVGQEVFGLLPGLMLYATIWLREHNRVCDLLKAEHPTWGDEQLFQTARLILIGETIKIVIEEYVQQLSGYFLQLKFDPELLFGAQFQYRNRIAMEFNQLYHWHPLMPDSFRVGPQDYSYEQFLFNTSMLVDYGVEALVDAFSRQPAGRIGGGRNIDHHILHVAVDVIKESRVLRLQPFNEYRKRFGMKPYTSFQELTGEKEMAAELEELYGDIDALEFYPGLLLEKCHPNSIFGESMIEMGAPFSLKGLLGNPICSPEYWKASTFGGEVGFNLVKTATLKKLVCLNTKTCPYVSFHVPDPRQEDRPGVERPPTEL

Mus musculus [2] = experiment: Analgesic activity in Swiss albino mouse assessed as inhibition of acetic acid-induced writhings at 5 mg/kg, ip measured 30 mins post acetic acid challenge; type: functional; conditions: 0.5 h
Mus musculus [3] = experiment: Analgesic activity in Swiss albino mouse assessed as inhibition of acetic acid-induced writhings at 10 mg/kg, ip measured 30 mins post acetic acid challenge; type: functional; conditions: 0.5 h
Mus musculus [4] = experiment: Analgesic activity in ip dosed Swiss albino mouse assessed as inhibition of acetic acid-induced writhings measured 30 mins post acetic acid challenge; type: functional; conditions: 0.5 h
Mus musculus [5] = experiment: Anti-inflammatory activity in Swiss albino mouse model of carrageenan-induced-paw edema assessed as inhibition of paw edema at 5 mg/kg, ip after 3 hrs; type: functional
[6] = target: Prostaglandin G/H synthase 1 (Homo sapiens, UniProt P23219); experiment: Inhibition of COX1 in human whole blood assessed as A23187-stimulated TxB2 production at 1 uM pre-incubated for 60 mins before A23187 addition and measured after 30 mins by ELISA (reference value: 2 ng/ml); conditions: 0.5 h
[7] = target: T2, Prostaglandin G/H synthase 2 (Homo sapiens) (UniProt P35354); conditions: 10 uM
T2 sequence (whole entry): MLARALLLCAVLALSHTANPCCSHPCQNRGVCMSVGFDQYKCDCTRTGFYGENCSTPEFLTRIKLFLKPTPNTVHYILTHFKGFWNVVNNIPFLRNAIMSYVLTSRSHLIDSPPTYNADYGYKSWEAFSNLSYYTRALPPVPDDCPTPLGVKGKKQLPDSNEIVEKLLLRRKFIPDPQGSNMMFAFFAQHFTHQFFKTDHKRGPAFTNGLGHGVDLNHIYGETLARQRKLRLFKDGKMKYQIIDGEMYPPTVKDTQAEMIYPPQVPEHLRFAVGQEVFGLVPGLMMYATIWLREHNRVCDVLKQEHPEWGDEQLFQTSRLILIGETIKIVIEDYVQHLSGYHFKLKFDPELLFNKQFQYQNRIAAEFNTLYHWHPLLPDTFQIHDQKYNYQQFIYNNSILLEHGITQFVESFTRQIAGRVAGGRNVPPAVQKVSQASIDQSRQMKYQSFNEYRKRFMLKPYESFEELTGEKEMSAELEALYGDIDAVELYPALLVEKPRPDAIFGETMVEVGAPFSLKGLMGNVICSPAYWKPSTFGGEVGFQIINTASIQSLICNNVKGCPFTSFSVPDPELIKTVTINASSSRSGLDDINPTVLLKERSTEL

Mus musculus [8] = experiment: Acute toxicity in Swiss albino mouse assessed as induction of myocardial lesions at 50 to 2000 mg/kg, po measured over 14 days post dose by H and E staining based microscopy; type: organism-based; conditions: in vivo, 336 h
Mus musculus [9] = experiment: Acute toxicity in Swiss albino mouse assessed as induction of behavioural impairment at 50 to 2000 mg/kg, po measured over 14 days post dose; type: organism-based; conditions: in vivo, 336 h
[10] = target: T3, Polyunsaturated fatty acid 5-lipoxygenase (Homo sapiens, UniProt P09917); experiment: Inhibition of 5-LOX (unknown origin)
T3 sequence (P09917 whole entry): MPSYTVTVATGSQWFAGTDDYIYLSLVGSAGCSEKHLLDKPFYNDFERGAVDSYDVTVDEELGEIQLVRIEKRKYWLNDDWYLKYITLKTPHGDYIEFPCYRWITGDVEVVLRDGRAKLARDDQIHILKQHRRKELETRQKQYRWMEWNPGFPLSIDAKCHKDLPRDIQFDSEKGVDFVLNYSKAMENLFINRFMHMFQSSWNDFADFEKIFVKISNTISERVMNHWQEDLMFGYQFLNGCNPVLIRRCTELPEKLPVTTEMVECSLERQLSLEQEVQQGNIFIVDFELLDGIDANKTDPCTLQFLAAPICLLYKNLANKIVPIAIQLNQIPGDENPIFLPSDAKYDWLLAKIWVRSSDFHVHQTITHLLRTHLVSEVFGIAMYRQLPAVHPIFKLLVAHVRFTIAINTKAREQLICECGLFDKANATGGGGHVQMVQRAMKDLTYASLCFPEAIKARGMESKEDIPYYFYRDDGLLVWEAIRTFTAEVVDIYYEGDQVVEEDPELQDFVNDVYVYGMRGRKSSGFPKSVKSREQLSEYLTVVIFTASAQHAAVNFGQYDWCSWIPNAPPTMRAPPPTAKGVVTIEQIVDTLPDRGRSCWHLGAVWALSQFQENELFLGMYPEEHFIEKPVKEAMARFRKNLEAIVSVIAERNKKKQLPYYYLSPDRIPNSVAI

Mus musculus [11] = experiment: Acute toxicity in Swiss albino mouse assessed as induction of renal lesions at 50 to 2000 mg/kg, po measured over 14 days post dose by H and E staining based microscopy; type: organism-based; conditions: in vivo, 336 h
Mus musculus [12] = experiment: Acute toxicity in Swiss albino mouse assessed as induction of mesangium shrinkage at 50 to 2000 mg/kg, po measured over 14 days post dose by H and E staining based microscopy; type: organism-based; conditions: in vivo, 336 h
[13] = target: T2, Prostaglandin G/H synthase 2 (Homo sapiens)
Description: Binding affinity to human COX2 assessed as binding constant by ITC

Mus musculus [14] = experiment: Acute toxicity in Swiss albino mouse assessed as induction of hepatic lesions at 50 to 2000 mg/kg, po measured over 14 days post dose by H and E staining based microscopy; type: organism-based; conditions: in vivo, 336 h
Mus musculus [15] = experiment: Acute toxicity in Swiss albino mouse assessed as induction of mortality at 50 to 2000 mg/kg, po measured over 14 days post dose; type: organism-based; conditions: in vivo, 336 h
Mus musculus [16] = experiment: Analgesic activity in […] pre-treated Swiss albino mouse assessed as inhibition of acetic acid-induced writhings at 5 mg/kg, ip measured 30 mins post acetic acid challenge; type: functional, organism-based
Mus musculus [17] = experiment: Acute toxicity in Swiss albino mouse assessed as induction of increase in capsular space at 50 to 2000 mg/kg, po measured over 14 days post dose by H and E staining based microscopy; type: organism-based; conditions: in vivo, 336 h
Mus musculus [18] = experiment: Acute toxicity in Swiss albino mouse assessed as induction of congestion in renal tissue at 50 to 2000 mg/kg, po measured over 14 days post dose by H and E staining based microscopy; type: organism-based; conditions: in vivo, 336 h
Mus musculus [19] = experiment: Analgesic activity in substance P pre-treated Swiss albino mouse assessed as inhibition of acetic acid-induced writhings at 5 mg/kg, ip measured 30 mins post acetic acid challenge; type: functional, organism-based
Mus musculus [20] = experiment: Anti-inflammatory activity in Swiss albino mouse model of carrageenan-induced-paw edema assessed as inhibition of paw edema at 10 mg/kg, ip after 3 hrs; type: functional

Sequence of Prostaglandin G/H synthase 1 (Homo sapiens, UniProt P23219) (P23219 whole entry): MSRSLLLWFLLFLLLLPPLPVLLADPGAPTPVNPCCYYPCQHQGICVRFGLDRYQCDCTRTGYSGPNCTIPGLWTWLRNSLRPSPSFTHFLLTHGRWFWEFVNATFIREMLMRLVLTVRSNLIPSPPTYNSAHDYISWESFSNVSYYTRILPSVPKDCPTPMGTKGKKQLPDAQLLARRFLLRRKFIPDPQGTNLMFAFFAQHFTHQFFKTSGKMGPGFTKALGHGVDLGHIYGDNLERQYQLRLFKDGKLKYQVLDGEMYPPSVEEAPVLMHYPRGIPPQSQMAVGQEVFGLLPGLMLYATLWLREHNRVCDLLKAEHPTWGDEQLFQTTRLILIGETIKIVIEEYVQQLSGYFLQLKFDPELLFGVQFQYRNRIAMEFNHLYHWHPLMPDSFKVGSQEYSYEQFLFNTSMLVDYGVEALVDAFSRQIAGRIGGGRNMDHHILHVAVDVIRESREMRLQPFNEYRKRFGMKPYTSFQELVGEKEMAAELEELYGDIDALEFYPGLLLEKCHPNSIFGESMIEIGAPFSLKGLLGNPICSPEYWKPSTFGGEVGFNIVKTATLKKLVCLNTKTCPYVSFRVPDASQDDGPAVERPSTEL

SMILES | IC50 [1] [µM] | inhibition in vivo at 5 mg/kg (Mus musculus [2]) [%] | inhibition in vivo at 10 mg/kg (Mus musculus [3]) [%] | further results
O=C1COCCN1c1ccc(Nc2nc(Cl)nc(NC3CCCCC3)n2)cc1 | > 10 | 56 | 81 | 
NCCOc1nc(Cl)nc(Nc2ccc(N3CCOCC3=O)cc2)n1 | > 10 |  |  | 
[N-]=[N+]=NCCOc1nc(Cl)nc(Nc2ccc(N3CCOCC3=O)cc2)n1 | > 10 |  |  | 
O=C1COCCN1c1ccc(Nc2nc(Cl)nc(N3CCCC3)n2)cc1 | 10 | 87 | 93 | Ka [7]: 2.54 ×10⁵ /M; Activity (Mus musculus [8]): Non-Toxic; ED50 (Mus musculus [4]): 2.2 mg/kg; Activity (Mus musculus [9]): Non-Toxic; IC50 [10]: > 10 µM; Activity (Mus musculus [11]): Non-Toxic; inhibition in vivo at 5 mg/kg (Mus musculus [5]): 38%; Activity (Mus musculus [12]): Toxic; Ka [13]: 5.37 ×10⁵ /M; Activity (Mus musculus [14]): Non-Toxic; Activity (Mus musculus [15]): Non-Toxic; inhibition (Mus musculus [16]): Active; Activity (Mus musculus [17]): Toxic; Activity [6]: 1.9 ng/mL; Activity (Mus musculus [18]): Toxic; Activity (Mus musculus [19]): inactive
COC(=O)C(N)Cc1ccc(Oc2nc(Cl)nc(Nc3ccc(N4CCOCC4=O)cc3)n2)cc1 (configuration not stated) | > 10 |  |  | 
O=C1COCCN1c1ccc(Nc2nc(Cl)nc(OCCCl)n2)cc1 | > 10 |  |  | 
O=C(NCCOc1nc(Cl)nc(Nc2ccc(N3CCOCC3=O)cc2)n1)C1CCCN1C(=O)OCc1ccccc1 (configuration not stated) | > 10 |  |  | 
Cc1ccc(-c2cc(C(F)(F)F)nn2-c2ccc(S(N)(=O)=O)cc2)cc1 [CELECOXIB] |  | 62 |  | inhibition in vivo at 5 mg/kg (Mus musculus [5]): 33%
Cc1ccc(S(=O)(=O)NCCOc2nc(Cl)nc(Nc3ccc(N4CCOCC4=O)cc3)n2)cc1 | > 10 |  |  | 
COc1ccc2c(c1)c(CC(=O)O)c(C)n2C(=O)c1ccc(Cl)cc1 [INDOMETHACIN] |  |  | 63 | inhibition in vivo at 10 mg/kg (Mus musculus [20]): 30%
O=C(NCCOc1nc(Cl)nc(Nc2ccc(N3CCOCC3=O)cc2)n1)c1ccc(Cl)s1 | > 10 |  |  | 

More lines, main results first:

IC50 [1] [µM] | SMILES | inhibition in vivo at 5 mg/kg (Mus musculus [2]) [%] | inhibition in vivo at 10 mg/kg (Mus musculus [3]) [%] | further results
> 10 | Cc1ccc(Nc2nc(Cl)nc(Nc3ccc(N4CCOCC4=O)cc3)n2)cc1 |  |  | 
> 10 | O=C1COCCN1c1ccc(Nc2nc(Cl)nc(Cl)n2)cc1 |  |  | 
> 10 | COc1ccc(Nc2nc(Cl)nc(Nc3ccc(N4CCOCC4=O)cc3)n2)cc1 | 47 | 79 | 
> 10 | O=C1COCCN1c1ccc(Nc2nc(Cl)nc(N3CCOCC3)n2)cc1 |  |  | 
> 10 | O=C1COCCN1c1ccc(Nc2nc(Cl)nc(N3CCN(c4ccccc4)CC3)n2)cc1 |  |  | 
> 10 | O=C1COCCN1c1ccc(Nc2nc(Cl)nc(Nc3ccc(Cl)cc3)n2)cc1 | 79 | 90.2 | ED50 (Mus musculus [4]): 1.9 mg/kg; inhibition in vivo at 5 mg/kg (Mus musculus [5]): 28%; Activity [6]: 1.85 ng/mL
> 10 | O=C1COCCN1c1ccc(Nc2nc(Cl)nc(NCc3ccccc3)n2)cc1 |  |  | 
> 10 | O=C(NCCOc1nc(Cl)nc(Nc2ccc(N3CCOCC3=O)cc2)n1)c1ccccc1F |  |  | 
50 | O=C1COCCN1c1ccc(Nc2nc(Cl)nc(Nc3ccc(Br)cc3)n2)cc1 |  |  | 
10 | O=C1COCCN1c1ccc(Nc2nc(Cl)nc(Nc3ccc(O)cc3)n2)cc1 | 56 | 68 | Activity [6]: 1.64 ng/mL
> 10 | O=C1COCCN1c1ccc(Nc2nc(Cl)nc(Nc3ccccc3)n2)cc1 | 76 | 83 | Activity [6]: 1.7 ng/mL
> 10 | Nc1nc(Cl)nc(Nc2ccc(N3CCOCC3=O)cc2)n1 | 67 | 74 | Activity [6]: 1.68 ng/mL
5 | O=C1COCCN1c1ccc(Nc2nc(Nc3ccc(Cl)cc3)nc(N3CCOCC3)n2)cc1 |  |  | 
